Data: patent US20060269529A1, “Modified t lymphocytes and uses therefor” (priority 2002, published 2006)

Key:
[1] = system: CT26 murine colon adenocarcinomas; assay: Adoptive transfer, subcutaneous CT26 tumors in BALB/c mice; format: in vivo; details: combination study, TNP-470 30 mg/kg s.c. every other day, daily IL-2, FIG. 5A
Method: (§1) On day 0, tumor cells were implanted into the subcutaneous space on the right flank of recipient mice. On the days of treatment, CTLs (4 to 7 post-transduction) were harvested, washed, resuspended in cold PBS, and injected in a volume of 300 μl into the retro-orbital venous plexus. […] TNP-470 (TAP Holdings Inc., Deerfield, Ill.) (30 mg/kg) was injected subcutaneously (into a site remote from the tumor) every other day in 0.3 ml PBS starting with the first day of CTL therapy. Starting volumes of tumors ranged from 40 to 80 mm^3.

B16.F10 murine melanomas = assay: Adoptive transfer, subcutaneous B16.F10 tumors in C57BL/6 mice; format: in vivo; details: combination study, TNP-470 30 mg/kg s.c. every other day, daily IL-2, FIG. 5B
Method: as §1

T241 fibrosarcomas = assay: Adoptive transfer, T241 tumors in C57BL/6 mice; format: in vivo; details: combination study, TNP-470 30 mg/kg s.c. every other day, daily IL-2, FIG. 5C
Method: as §1, with “mm^3. All mice were sacrificed when control mice reached a mean tumor volume of 2,000 mm^3 or had extensive tumor ulceration.” for “mm^3.”

[2] = Toxicity observations in treated tumor-bearing mice; format: in vivo; details: TNP-470 alone
Method: as §1, with “mm^3. All mice were sacrificed when control mice reached a mean tumor volume of 2,000 mm^3 or had extensive tumor ulceration.” for “mm^3.”

human KDR-Fc (VEGFR2) = target: T1, human KDR-Fc (VEGFR2) (Homo sapiens, UniProt P35968); format: binding
T1 construct: purchased R & D Systems
T1 sequence (P35968 20-764 limits assumed): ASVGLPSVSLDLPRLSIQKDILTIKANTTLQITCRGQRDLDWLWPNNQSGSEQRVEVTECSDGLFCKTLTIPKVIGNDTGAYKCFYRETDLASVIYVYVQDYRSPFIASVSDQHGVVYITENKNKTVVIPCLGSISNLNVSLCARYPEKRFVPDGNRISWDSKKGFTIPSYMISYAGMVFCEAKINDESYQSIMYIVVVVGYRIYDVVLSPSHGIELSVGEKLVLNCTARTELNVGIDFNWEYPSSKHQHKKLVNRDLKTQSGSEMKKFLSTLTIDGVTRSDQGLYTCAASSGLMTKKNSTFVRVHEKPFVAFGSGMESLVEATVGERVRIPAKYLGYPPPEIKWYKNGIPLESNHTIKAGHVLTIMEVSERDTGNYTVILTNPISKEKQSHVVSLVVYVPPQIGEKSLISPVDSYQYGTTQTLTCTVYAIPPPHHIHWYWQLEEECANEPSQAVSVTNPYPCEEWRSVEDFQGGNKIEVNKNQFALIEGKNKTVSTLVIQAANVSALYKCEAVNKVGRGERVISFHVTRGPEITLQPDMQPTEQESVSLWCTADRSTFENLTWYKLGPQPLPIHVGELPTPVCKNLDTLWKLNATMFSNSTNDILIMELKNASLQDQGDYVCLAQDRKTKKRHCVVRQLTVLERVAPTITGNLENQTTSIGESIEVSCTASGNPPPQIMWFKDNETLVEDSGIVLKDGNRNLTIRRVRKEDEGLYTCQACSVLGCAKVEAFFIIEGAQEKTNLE
Method: High-titer retrovirus encoding the gene for a soluble form of Flk-1, Flk-Fc, were used to infect 293T cells. Conditioned medium from these transduced cells was collected and subjected to Western blot analysis by using either antibody directed against Flk-1 or ^125I-labeled protein A to confirm the presence of both the Flk-1 and Fc portions of the fusion protein. For FACS analysis of HeLa-VEGF-cTcR cells, 2 ml of conditioned medium from these transduced cells or control media from untransduced 293T cells was used as the primary reagent. The cells were then washed and incubated with anti-mouse IgG2a-PE (Chemicon) and analyzed. For the VEGF-cTcR/KDR-Fc binding study, VEGF-cTcR clone 2 cells were incubated with increasing amounts of human KDR-Fc (R & D Systems), washed twice with PBS, and stained with anti-human IgG1-FITC antibody. For analysis of transduced CTLs, cells were incubated successively with anti-human c-Myc antibody, biotinylated anti-mouse IgG, and streptavidin-PE or only with anti-mouse CD8 antibody conjugated to FITC (Pharmingen).

Flk-1 = Flk-1 (Mus musculus, UniProt P35918); details: Millauer 1993; Quinn 1993; cited from earlier work
Sequence of Flk-1 (P35918 20-1345): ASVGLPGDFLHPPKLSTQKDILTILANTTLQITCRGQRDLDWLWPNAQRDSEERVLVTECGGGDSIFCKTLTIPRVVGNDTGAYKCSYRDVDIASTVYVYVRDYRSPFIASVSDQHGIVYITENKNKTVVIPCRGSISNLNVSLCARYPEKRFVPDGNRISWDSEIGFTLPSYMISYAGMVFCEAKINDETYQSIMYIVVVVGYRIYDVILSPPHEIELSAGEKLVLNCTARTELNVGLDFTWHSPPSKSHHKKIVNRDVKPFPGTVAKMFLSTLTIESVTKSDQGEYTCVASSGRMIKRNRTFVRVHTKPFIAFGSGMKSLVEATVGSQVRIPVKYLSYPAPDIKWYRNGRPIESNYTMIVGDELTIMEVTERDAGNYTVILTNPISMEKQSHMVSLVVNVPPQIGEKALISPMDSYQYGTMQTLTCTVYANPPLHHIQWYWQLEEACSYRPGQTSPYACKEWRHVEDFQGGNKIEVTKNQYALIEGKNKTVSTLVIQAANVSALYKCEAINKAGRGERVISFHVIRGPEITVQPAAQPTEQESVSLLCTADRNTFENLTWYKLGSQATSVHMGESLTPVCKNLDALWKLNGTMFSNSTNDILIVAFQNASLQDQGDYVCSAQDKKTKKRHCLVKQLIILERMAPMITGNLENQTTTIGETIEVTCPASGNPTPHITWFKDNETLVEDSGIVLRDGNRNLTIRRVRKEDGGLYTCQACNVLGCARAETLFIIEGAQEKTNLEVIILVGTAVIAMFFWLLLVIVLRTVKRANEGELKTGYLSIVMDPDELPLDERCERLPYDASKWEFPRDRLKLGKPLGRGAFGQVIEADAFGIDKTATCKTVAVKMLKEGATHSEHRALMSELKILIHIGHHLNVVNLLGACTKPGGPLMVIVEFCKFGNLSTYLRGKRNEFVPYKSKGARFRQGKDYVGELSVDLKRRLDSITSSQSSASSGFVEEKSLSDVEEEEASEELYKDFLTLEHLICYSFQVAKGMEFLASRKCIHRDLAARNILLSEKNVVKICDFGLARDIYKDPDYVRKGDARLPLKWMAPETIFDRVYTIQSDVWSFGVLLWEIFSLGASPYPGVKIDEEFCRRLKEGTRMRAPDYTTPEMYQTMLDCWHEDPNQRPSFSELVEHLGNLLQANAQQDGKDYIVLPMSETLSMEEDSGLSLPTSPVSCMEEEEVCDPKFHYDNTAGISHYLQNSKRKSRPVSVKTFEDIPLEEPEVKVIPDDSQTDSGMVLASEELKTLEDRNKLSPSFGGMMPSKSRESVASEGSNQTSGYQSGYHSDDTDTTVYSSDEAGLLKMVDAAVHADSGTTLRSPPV

Compound | inhibition of CT26 adenocarcinoma growth [1] | inhibition of B16.F10 melanoma growth (B16.F10 murine melanomas) | inhibition of T241 fibrosarcoma growth (T241 fibrosarcomas) | weight loss ([2]; 30 mg/kg s.c. every other day) | reaction at the TNP-470 injection site ([2]; occasionally) | inhibition of KDR-Fc binding to VEGF-cTcR clone 2 cells (human KDR-Fc (VEGFR2)) | binding affinity reported for association of native VEGF and Flk-1 (Flk-1)
CO[C@@H]1[C@H](OC(=O)NC(=O)CCl)CC[C@]2(CO2)[C@H]1[C@@]1(C)O[C@@H]1CC=C(C)C [TNP-470] | 70% | 71% | 73% | up to 10 % of total body weight | mild skin breakdown |  | 
VEGF |  |  |  |  |  | inhibited in a dose-dependent manner | 0.1 to 0.5 nM
